Data from ChEMBL document CHEMBL5465560, “Selectivity Literature for EUbOPEN Chemogenomic Library” (2024).

What was measured:
[1] = target: Phosphorylase b kinase gamma catalytic chain, skeletal muscle/heart isoform (Homo sapiens) (UniProt Q16816); experiment: Selectivity interaction (SelectScreen profiling (Invitrogen)) EUB0000607a PHKG1; details: at 2 µM
[2] = target: T1, Serine/threonine-protein kinase RIO3 (Homo sapiens) (UniProt O14730); experiment: Selectivity interaction (KinomeScan (DiscoverX)) EUB0000607a RIOK3; details: at 10 µM
T1 sequence (whole entry): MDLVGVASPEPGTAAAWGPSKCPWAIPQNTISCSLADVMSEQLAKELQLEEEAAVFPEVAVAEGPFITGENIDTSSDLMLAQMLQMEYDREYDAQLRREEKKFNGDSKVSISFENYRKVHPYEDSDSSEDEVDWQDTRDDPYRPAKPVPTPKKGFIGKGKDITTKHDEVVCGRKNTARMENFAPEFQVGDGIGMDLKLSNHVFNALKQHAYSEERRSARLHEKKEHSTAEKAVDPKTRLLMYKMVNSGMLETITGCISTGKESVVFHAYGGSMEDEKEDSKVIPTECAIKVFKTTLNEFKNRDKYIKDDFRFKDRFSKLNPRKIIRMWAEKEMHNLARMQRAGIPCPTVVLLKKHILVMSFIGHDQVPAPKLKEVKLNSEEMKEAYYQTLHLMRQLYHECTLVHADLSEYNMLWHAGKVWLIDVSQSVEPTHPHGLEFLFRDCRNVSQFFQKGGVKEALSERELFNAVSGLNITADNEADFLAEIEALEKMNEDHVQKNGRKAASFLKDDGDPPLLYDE

[3] = target: T2, Phosphatidylinositol 5-phosphate 4-kinase type-2 gamma (Homo sapiens) (UniProt Q8TBX8); experiment: Selectivity interaction (ActivX KiNativ screen (ex vivo kinase selectivity in human PBMCs)) EUB0001619a PIP4K2C; format: cell-based; details: PBMC, at 1 µM
T2 sequence (whole entry): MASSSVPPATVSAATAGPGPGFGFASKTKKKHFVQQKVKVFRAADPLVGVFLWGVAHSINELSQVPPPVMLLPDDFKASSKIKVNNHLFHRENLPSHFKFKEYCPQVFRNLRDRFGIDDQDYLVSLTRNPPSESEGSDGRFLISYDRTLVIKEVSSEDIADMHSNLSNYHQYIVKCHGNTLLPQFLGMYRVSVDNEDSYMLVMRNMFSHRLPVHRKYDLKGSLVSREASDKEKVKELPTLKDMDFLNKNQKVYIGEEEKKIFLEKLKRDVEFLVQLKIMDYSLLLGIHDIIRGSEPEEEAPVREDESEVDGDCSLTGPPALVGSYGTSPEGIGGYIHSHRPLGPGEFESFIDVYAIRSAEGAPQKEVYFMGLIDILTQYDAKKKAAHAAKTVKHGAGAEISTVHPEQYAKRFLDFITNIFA

[4] = target: CDK4/Cyclin D3 (Homo sapiens) (UniProt P11802+P30281); experiment: (§1) Selectivity interaction (KinomeScan (DiscoverX)) EUB0000045b CDK4; format: protein-complex assay
[5] = target: Cyclin-dependent kinase 4/cyclin D1 (Homo sapiens) (UniProt P11802+P24385); experiment: as §1; format: protein-complex assay
[6] = test system: Phosphatidylinositol 4,5-bisphosphate 3-kinase catalytic subunit alpha isoform (Homo sapiens), P42336 [E542K]; details: at 10 µM
[7] = target: Epidermal growth factor receptor (Homo sapiens, UniProt P00533); experiment: Selectivity interaction (Upstate Kinase Profiler service (Millipore)) EUB0000056c EGFR; details: at 1 µM
Sequence of Epidermal growth factor receptor (P00533 whole entry): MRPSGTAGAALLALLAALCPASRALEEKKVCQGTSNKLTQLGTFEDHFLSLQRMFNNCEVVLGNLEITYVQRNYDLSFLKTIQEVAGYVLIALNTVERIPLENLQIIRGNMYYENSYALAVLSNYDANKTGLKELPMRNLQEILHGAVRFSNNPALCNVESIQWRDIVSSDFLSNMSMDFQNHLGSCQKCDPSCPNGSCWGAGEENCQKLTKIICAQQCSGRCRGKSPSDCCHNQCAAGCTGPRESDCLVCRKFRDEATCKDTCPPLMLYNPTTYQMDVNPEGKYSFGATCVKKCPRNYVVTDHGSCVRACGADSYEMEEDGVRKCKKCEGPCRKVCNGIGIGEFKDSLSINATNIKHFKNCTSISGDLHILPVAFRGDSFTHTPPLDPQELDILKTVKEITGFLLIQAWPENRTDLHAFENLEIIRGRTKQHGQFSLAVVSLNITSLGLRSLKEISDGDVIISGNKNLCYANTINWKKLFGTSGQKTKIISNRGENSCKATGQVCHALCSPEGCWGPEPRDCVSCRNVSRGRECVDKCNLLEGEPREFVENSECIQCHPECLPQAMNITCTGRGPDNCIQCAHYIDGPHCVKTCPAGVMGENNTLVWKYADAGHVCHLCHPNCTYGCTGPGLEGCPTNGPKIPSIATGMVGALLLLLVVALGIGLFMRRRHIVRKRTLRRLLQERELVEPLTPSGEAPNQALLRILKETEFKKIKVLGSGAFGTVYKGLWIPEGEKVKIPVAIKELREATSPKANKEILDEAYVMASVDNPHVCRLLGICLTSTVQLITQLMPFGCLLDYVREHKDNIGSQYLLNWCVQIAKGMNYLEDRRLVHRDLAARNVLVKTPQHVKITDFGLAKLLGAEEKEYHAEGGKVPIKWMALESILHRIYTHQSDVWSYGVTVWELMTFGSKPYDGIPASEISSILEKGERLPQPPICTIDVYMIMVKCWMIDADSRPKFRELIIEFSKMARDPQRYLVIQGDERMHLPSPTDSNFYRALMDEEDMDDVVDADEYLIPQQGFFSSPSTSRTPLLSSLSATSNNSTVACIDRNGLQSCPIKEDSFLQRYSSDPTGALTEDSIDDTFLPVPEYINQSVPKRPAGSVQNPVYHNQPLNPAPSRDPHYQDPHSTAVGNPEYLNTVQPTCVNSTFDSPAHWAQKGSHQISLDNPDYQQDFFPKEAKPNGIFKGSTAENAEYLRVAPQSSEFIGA

[8] = target: Platelet-derived growth factor receptor alpha (Homo sapiens, UniProt P16234); experiment: Selectivity interaction (Kinase panel (Invitrogen)) EUB0000639a PDGFRA; details: at 200 nM
Sequence of Platelet-derived growth factor receptor alpha (P16234 whole entry): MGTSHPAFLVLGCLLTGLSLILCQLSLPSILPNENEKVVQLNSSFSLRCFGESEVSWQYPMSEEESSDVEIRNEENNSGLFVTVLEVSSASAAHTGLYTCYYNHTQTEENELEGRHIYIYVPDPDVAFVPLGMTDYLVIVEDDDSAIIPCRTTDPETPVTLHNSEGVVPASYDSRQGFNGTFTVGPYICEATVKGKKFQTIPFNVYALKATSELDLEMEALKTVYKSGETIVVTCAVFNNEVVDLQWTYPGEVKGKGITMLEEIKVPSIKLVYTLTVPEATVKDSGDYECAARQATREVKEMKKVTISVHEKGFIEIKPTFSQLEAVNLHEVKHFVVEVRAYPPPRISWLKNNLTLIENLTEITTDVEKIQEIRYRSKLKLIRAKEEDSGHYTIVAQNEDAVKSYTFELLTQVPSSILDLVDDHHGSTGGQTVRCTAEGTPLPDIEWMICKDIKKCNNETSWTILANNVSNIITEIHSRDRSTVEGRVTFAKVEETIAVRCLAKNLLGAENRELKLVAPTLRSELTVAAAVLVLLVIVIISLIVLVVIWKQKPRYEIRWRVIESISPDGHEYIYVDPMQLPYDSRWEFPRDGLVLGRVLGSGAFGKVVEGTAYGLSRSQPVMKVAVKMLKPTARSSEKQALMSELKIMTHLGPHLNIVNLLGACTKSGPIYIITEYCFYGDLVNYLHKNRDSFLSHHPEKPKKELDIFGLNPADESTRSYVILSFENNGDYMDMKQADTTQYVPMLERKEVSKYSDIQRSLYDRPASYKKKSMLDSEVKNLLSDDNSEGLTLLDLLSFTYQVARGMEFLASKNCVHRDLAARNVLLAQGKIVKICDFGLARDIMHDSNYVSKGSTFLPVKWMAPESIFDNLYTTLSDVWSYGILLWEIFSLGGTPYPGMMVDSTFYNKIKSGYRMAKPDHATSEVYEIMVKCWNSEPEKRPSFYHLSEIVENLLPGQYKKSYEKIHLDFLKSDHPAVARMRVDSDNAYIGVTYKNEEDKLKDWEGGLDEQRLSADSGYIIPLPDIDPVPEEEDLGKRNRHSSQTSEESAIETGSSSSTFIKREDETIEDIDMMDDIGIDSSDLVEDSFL

[9] = target: T3, Hormonally up-regulated neu tumor-associated kinase (Homo sapiens) (UniProt P57058); experiment: Selectivity interaction (LanthaScreen Eu Kinase Binding Assay) EUB0001632a HUNK; details: at 10 µM
T3 sequence (whole entry): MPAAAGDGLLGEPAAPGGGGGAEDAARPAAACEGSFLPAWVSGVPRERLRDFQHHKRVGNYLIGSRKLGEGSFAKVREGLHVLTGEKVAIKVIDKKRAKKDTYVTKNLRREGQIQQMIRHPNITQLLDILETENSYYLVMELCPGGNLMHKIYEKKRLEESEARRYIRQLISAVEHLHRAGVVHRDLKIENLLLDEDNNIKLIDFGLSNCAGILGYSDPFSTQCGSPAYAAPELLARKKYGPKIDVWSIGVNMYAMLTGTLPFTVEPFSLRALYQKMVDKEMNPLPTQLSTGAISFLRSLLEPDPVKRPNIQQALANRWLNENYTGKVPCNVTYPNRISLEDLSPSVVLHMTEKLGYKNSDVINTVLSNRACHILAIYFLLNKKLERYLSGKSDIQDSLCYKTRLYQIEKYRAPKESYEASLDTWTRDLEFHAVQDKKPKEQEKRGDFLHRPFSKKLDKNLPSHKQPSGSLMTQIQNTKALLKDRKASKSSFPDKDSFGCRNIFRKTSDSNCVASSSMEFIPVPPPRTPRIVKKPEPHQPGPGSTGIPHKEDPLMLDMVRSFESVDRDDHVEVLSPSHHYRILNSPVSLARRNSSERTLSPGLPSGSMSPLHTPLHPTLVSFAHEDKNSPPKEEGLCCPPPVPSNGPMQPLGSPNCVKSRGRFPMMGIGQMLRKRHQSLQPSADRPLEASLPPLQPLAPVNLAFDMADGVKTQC

[10] = target: Serine/threonine-protein kinase MRCK beta (Homo sapiens) (UniProt Q9Y5S2); experiment: Selectivity interaction (KinomeScan (DiscoverX)) EUB0000695a CDC42BPB; details: at 100 nM
Sequence of Serine/threonine-protein kinase MRCK beta (Homo sapiens) (Q9Y5S2 whole entry): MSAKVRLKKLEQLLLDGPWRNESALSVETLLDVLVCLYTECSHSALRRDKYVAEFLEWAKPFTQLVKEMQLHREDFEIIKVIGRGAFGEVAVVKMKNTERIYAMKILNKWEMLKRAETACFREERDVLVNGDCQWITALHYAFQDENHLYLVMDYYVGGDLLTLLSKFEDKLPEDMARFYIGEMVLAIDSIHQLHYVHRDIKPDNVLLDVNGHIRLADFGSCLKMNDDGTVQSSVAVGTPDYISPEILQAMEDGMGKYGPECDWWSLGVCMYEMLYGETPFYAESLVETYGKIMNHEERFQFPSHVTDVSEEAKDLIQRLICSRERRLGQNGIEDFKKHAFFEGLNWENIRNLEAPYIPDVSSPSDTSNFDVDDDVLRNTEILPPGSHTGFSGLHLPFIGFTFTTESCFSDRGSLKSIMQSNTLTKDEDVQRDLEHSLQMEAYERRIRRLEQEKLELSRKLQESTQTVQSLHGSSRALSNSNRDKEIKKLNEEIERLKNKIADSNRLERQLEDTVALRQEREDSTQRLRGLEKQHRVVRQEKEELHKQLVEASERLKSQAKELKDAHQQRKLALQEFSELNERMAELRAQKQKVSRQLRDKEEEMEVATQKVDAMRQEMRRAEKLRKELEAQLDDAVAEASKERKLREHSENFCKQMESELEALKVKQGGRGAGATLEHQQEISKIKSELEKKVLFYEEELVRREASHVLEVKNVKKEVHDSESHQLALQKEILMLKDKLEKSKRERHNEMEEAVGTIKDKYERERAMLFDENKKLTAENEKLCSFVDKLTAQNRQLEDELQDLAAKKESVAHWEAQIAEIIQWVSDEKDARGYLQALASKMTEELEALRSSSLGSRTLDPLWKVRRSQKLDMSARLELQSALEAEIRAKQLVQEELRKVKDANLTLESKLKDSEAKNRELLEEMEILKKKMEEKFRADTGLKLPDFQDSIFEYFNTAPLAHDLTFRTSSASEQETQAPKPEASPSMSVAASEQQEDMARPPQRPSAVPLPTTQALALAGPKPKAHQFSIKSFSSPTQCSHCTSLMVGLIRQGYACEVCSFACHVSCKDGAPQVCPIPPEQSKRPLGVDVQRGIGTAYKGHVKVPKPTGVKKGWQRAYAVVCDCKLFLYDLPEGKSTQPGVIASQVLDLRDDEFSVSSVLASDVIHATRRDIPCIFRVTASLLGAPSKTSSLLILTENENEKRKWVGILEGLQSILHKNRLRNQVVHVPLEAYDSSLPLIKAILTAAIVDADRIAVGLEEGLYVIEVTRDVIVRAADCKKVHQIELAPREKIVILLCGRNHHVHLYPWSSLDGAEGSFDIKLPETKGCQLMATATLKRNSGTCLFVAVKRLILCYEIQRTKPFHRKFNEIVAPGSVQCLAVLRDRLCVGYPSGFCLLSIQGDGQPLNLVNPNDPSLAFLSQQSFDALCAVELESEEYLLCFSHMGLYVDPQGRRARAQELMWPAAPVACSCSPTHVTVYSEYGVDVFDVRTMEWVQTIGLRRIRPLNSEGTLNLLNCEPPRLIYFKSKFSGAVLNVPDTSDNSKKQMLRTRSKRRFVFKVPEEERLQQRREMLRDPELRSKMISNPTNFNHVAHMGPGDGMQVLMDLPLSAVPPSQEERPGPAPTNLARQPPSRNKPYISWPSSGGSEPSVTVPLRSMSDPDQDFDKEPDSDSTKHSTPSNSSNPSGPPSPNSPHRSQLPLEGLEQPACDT

Sequence of Phosphorylase b kinase gamma catalytic chain, skeletal muscle/heart isoform (Homo sapiens) (Q16816 whole entry, looked up, canonical isoform): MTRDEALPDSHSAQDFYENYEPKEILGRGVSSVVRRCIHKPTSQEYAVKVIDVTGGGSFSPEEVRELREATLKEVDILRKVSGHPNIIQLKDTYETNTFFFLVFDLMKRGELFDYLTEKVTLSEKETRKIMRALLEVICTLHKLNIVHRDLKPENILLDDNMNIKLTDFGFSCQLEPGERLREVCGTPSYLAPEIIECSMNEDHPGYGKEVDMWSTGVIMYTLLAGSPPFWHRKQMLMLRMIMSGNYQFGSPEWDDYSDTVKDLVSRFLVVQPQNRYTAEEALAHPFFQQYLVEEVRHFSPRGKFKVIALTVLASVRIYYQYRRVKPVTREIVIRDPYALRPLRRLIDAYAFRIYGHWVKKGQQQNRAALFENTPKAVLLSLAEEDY

CNC(=O)Nc1ccc(-c2nc(N3CC4CCC(C3)O4)c3cnn(C4CCC5(CC4)OCCO5)c3n2)cc1
% of inhibition [1]: 7% | % of control [2]: 100%

N#Cc1cccc(-c2c[nH]c3ncnc(N4CCOCC4)c23)c1
% of inhibition [3]: 58%

C=CC(=O)Nc1cc(-n2c(=O)ccc3cnc4ccc(-c5ccc(NS(C)(=O)=O)cc5)cc4c32)ccc1C
% of control ([4]; at 1 µM): 100% | % of control ([4]; at 10 µM): 93% | % of control ([5]; at 1 µM): 100% | % of control ([5]; at 10 µM): 100%

COCC(=O)NC/C=C/c1ccc2ncnc(Nc3ccc(Oc4ccc(C)nc4)c(C)c3)c2c1 [CP-724714]
% of control [6]: 100%

Cc1ccc(-c2ccc3c(ccc4sc5c(c43)NC[C@@H](C)NC5=O)n2)cn1
% of inhibition [7]: -2%

CC[C@@H]1[C@H](F)C(=O)N[C@@H]1COc1nccc2cc(C(N)=O)c(OC)cc12 [ZIMLOVISERTIB]
% of inhibition [8]: 9.99%

Cn1cc(-n2cnc3c(NCc4nc5cc(Cl)c(Cl)cc5[nH]4)nc(N4CCOCC4)nc32)cn1
% of inhibition [9]: -12%

Cc1cc(F)c(C(=O)Nc2cccc(-c3nncn3C(C)C)n2)cc1-n1cnc(C2CC2)c1
% of control [10]: 100%
